Consider eight molecules from US10676746B2, “Methods for identifying therapeutic targets and treating monitoring cancers” (Fred Hutchinson Cancer Research Center, priority 2013, dated 2020).

“Also recorded” adds a separate entry of the source.

By IC50 is commonly meant the concentration that gives 50% inhibition.

Data set [1] has as its system HNSCC cells. As to the kind of experiment: Dose-response curves with kinase inhibitors, CellTiterGlo viability, HNSCC cells. It is filed as cell-based, human. The conditions noted are these: for effect on viability of p53 mutant HNSCC cells: autologous pairs UMSCC-14A, UMSCC-14C, PCI-15A, PCI-15B, result in words; for IC50: Homo sapiens. How it is done: (§1) Kinase inhibition dose response curves were performed with six kinase inhibitors (MK-1775 (a.k.a., […]), TAE684, PI828, PIK93, PP2, PF-562271) against kinase targets (WEE1, ALK, PI3K, PIK4CB, FYN, FAK (ILK surrogate)), respectively. Kinase inhibitors: MK-1775 (S1525), PIK93 (S1489), TAE684 (S1108) were obtained from Selleck Chemicals (Houston, Tex.); PI828 (2814), PP2 (1407) from Tocris Bioscience (Mpls, Minn.), and PF-562271 from Synkinase (San Diego, Calif.). All HNSCC (UMSCC-17A, UM-SCC47A, PCI-15A, PCI-15B, UM-SCC14A, UM-SCC14C) and MSCC (CK1: p53+/+ and CK4: p53−/−) cells were plated at ˜5-10×10^3 cells/100 μl per well, and incubated at 37° C. for ˜24 hours on 96-well assay plates (Corning Inc.). Serial dilutions of the kinase inhibitors and vehicle control (DMSO) were prepared in 1 mL assay blocks at 3× working concentration to generate dose-response curves ranging from 100 μM to 0.03 μM. All serial dilutions were prepared using cell culture media. Approximately 72 hours post-treatment, cells were assessed for metabolic activity via ATP using CellTiterGlo (Promega), following the protocol outlined by the manufacturer utilizing an FLx800, and/or a Synergy H4 Hybrid multi-mode reader (Biotek). All assays were performed in triplicate and normalized to wells with no treatment. Dose-response curves and IC50 values were generated using GraphPad Prism Version 5 (Parameters: nonlinear regression fit; equation=log (inhibitor) vs. response−variable slope (four parameters); single constraint).
For orientation: ATP-based viability assays read luminescence as a measure of living cells.

On the set-up of data set [2]: species or system mice. To be noted: mouse, in vivo. How it is done:
PCI-15B cells were inoculated subcutaneously into the right flanks of 28 eight-week old NOD/SCID IL2 gamma null mice (NSG) provided by the Olson laboratory at the Fred Hutchinson Cancer Research Center. When tumors reached a palpable mass of >50 mm^3, mice were randomly assigned into four treatment groups of seven mice each and all measurements and treatment regimens were carried out using a double-blind protocol. The WEE1 inhibitor MK-1775 (S1525-Selleck Chemicals, Houston, Tex.) was delivered by oral gavage (30 mg/kg) twice per week for 4 weeks in dimethylsulfoxide in 0.5% methylcellulose (M0512, Sigma Aldrich) in a 1:14 suspension. Cisplatin (P4394, cis-diammineplatinum (II) dichloride, Sigma Aldrich) was delivered via intra-peritoneal injection (4.0 mg/kg) once a week for 4 weeks. The volume of the implanted tumor was measured weekly with calipers and tumor volumes calculated using the formula: V=L×W^2/2; in which V, volume (mm^3); L, largest diameter (mm); W, smallest diameter (mm). All animal protocols were approved by the Fred Hutchinson Cancer Research Center Laboratory Animal Care and Use Committee.

Data set [3] has as its system PCI-15B xenografts. Description: Xenograft tumor model. The format is in vivo, mice.
Data set [4] concerns HNSCC cells. Description: Caspase-3/7 dependent apoptosis assay. It is filed as cell-based, human. To be noted: p53 mutant cells. How it is done:
(§2) Mitotic entry was assessed as previously described (Aarts, M. et al, Cancer Discov 2012; 2:524-39). Briefly, HNSCC cells (PCI-15B, UMSCC-17A) were treated with 1 μM MK-1775 for 8 and 24 hours, and all cells were harvested, washed, and incubated with rabbit monoclonal antibody to phospho-histone H3 (Serine10) (Cell Signaling Technology, Cat. No. 3465, Danvers, Mass.) for 2 hours at RT, washed, and DNA stained with 20 μg/ml propidium iodide, RNaseA in PBS (Sigma-Aldrich; Cat. Nos. P4170, R6513). Flow cytometric analysis was performed utilizing a BD FACS Canto II, and profiles analyzed with BD Cell Quest software (Becton Dickinson, CA). Caspase-3/7 dependent apoptosis was assessed as per protocol (Promega, Cat. No. G8091) utilizing a SynergyH4 Hybrid Reader (Biotek, VT). AUCs were calculated for all treatments and vehicle (DMSO) for all cell lines utilizing two measurements over a 48-hour period with three concentrations (30 nm, 100 nm, 1 μM) of MK-1775.

The test system of data set [5] is MSCC cells. As to the kind of experiment: Dose-response curves with kinase inhibitors, CellTiterGlo viability, MSCC cells. The format is cell-based, murine. The conditions noted are these: for IC50: Mus musculus. As to the method:
as §1

Data set [6] concerns WEE1. As to the kind of experiment: Immunoblotting of xenograft tumor lysates. The format is in vivo. To be noted: oral MK-1775 treated mice vs vehicle. From the text: Tumor tissues were minced and homogenized on ice in M-PER Mammalian Protein Extraction Reagent supplemented with Halt Protease and Phosphatase Inhibitor Cocktail (Thermo Fisher Scientific). Extracted proteins were quantified by a BCA protein assay (Thermo Fisher Scientific). […] Anti-WEE1 (Cat. No. 4936), anti-phospho-WEE1 ([…]) (Cat. No. 4910), anti-CDC2 (Cat. No. 9112), and anti-phospho-CDC2 (Tyr15) (Cat. No. 4539) antibodies were purchased from Cell Signaling Technology (Danvers, Mass.). The secondary antibodies used were ZyMaxTM horseradish peroxidase (HRP) conjugated goat-anti-rabbit IgG (Life Technologies). HRP was detected with SuperSignal West Pico Chemiluminescent Substrate kit (Thermo Fisher Scientific).

Data set [7] concerns HNSCC cells (PCI-15B, UMSCC-17A). Description: Mitotic entry and cell cycle analysis by flow cytometry. The format is cell-based, human. The conditions noted are these: for mitotic entry, phospho-histone H3 (serine 10): 1 μM. How it is done:
as §2
On the technique in general: In flow cytometry, cells or beads pass a laser one at a time.

[8] abbreviates: p53−/− (p53 deficient) MSCC cells.

As to `Nc1ccc(-c2cccc3c(=O)cc(N4CCOCC4)oc23)cc1` [PI828], the “effect on viability of p53 mutant HNSCC cells” value (from here on “effect on viability”) in data set [1] is “impairs viability”.

On to `C=CCn1c(=O)c2cnc(Nc3ccc(N4CCN(C)CC4)cc3)nc2n1-c1cccc(C(C)(C)O)n1` [MK-1775], for which the “tolerability of dosing regime” value in data set [2] is reported as “well-tolerated”. The IC50 is 580 to 1100 nM in data set [1] (UMSCC14A, p53 mutant UMSCC-14A and UMSCC-14C cells and p53 wild type UMSCC-47 cells (intermediate)); 140 to 170 nM in data set [1] (p53 mutant PCI-15A and PCI-15B HNSCC cells); 4500 nM in data set [1] (p53 wild type UMSCC-17A cells); 4500 nM in data set [5] (p53 wild type MSCC cells); 220 nM in data set [5] (setting [8]). For the same molecule, the “effect on viability” value in data set [1] is reported as “sensitive; also recorded: impairs viability”. Further, the “inhibition of growth of HNSCC tumors as compared to vehicle” value in data set [3] (30 mg/kg oral gavage twice weekly, 4-week protocol) turned out to be 66%. Besides, the “apoptotic marker caspase 3/7” value in data set [4] is “activation”. Further, the “IC50 lower in p53−/− MSCC cells compared to p53 wild type cells” value in data set [5] (p53−/− vs p53 wild type MSCC) is listed as 20 fold. In data set [6], the “phosphorylation of WEE1 in tumor lysates” value is reported as “reduced phosphorylation”. Further, the “phosphorylation of WEE1 substrate CDC2 in tumor lysates” value in data set [6] is “reduced phosphorylation”. Also, the “4N DNA content” value in data set [7] (p53 mutant cells) is “loss”. In addition, in data set [7] (p53 mutant cells), the “subG1 DNA content” value was “increase”. The results for the “mitotic entry, phospho-histone H3 (serine 10)” value in data set [7] (p53 mutant cells (PCI-15B)) and in data set [7] (p53 wild type cells (UMSCC-17A)) were “unscheduled mitotic entry” and “not”, respectively.

With `CC(=O)Nc1nc(C)c(-c2ccc(Cl)c(S(=O)(=O)NCCO)c2)s1` [PIK93], the “effect on viability” value in data set [1] is “sensitive; also recorded: impairs viability”.

Take `CC(C)(C)n1nc(-c2ccc(Cl)cc2)c2c(N)ncnc21` [PP2]: in data set [1], the “effect on viability” value is “impairs viability”.

Consider `NC(=O)Nc1cc(-c2cccc(F)c2)sc1C(=O)N[C@H]1CCCNC1` [AZD7762], for which the IC50 in data set [5] (p53 wild type MSCC cells) came out at 2200 nM; in data set [5] (setting [8]), 130 nM.

`N.N.[Cl][Pt][Cl]` [cisplatin, cis-diammineplatinum (II) dichloride]: the “tumor regression (reduction)” value in data set [3] (cisplatin 4.0 mg/kg i.p. once a week, 4 weeks, MK-1775 given 24 hours after cisplatin) is recorded as 60%.

For `COc1cc(N2CCC(N3CCN(C)CC3)CC2)ccc1Nc1ncc(Cl)c(Nc2ccccc2S(=O)(=O)C(C)C)n1` [TAE684], the “effect on viability” value in data set [1] was “sensitive; also recorded: impairs viability”.

On to `CN(c1ncccc1CNc1nc(Nc2ccc3c(c2)CC(=O)N3)ncc1C(F)(F)F)S(C)(=O)=O` [PF-562271], for which, in data set [1], the “effect on viability” value is “sensitive; also recorded: impairs viability”.
